In patent US20230257396A1, “MACROCYCLES AND THEIR USE” (BLOSSOMHILL THERAPEUTICS, INC., priority 2020, published 2023):

How the values were obtained:
Test in all cases: KINOMEscan kinase binding assay (Eurofins/DiscoveRx), % Ctrl
kinases [1] = target: T1, kinases (Homo sapiens, UniProt P00533, L858R); settings: 1 μM; EGFR(L858R)
T1 construct: purchased Eurofins/DiscoveRx; host or cells: E. coli BL21-derived host (T7 phage display) for most kinases; HEK-293 for the rest
How it was run: (§1)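 Read-out is qPCR of kinase eluted from ligand-coated streptavidin beads after 1 h room-temperature competition with test compound. Values are % Ctrl at the tested concentration, lower meaning tighter binding.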

kinases [2] = target: T2, kinases (Homo sapiens, UniProt P07949, M918T); settings: 1 μM; RET(M918T)
T2 construct: purchased Eurofins/DiscoveRx; host or cells: E. coli BL21-derived host (T7 phage display) for most kinases; HEK-293 for the rest
How it was run: as §1

kinases [3] = target: T3, kinases (Homo sapiens, UniProt P00519); settings: 1 μM
T3 construct: purchased Eurofins/DiscoveRx; host or cells: E. coli BL21-derived host (T7 phage display) for most kinases; HEK-293 for the rest
How it was run: as §1

kinases [4] = target: T4, kinases (Homo sapiens, UniProt P00533); settings: 1 μM; EGFR
T4 construct: purchased Eurofins/DiscoveRx; host or cells: E. coli BL21-derived host (T7 phage display) for most kinases; HEK-293 for the rest
How it was run: as §1

kinases [5] = target: T5, kinases (Homo sapiens, UniProt P00533, L861Q); settings: 1 μM; EGFR(L861Q)
T5 construct: purchased Eurofins/DiscoveRx; host or cells: E. coli BL21-derived host (T7 phage display) for most kinases; HEK-293 for the rest
How it was run: as §1

kinases [6] = target: T6, kinases (Homo sapiens, UniProt P00519, H396P); settings: 1 μM
T6 construct: purchased Eurofins/DiscoveRx; host or cells: E. coli BL21-derived host (T7 phage display) for most kinases; HEK-293 for the rest
How it was run: as §1

kinases [7] = target: T7, kinases (Homo sapiens, UniProt P00519, Y253F); settings: 1 μM; ABL1(Y253F)-phosphorylated
T7 construct: purchased Eurofins/DiscoveRx; host or cells: E. coli BL21-derived host (T7 phage display) for most kinases; HEK-293 for the rest
How it was run: as §1

kinases [8] = target: T8, kinases (Homo sapiens, UniProt P36888); settings: 1 μM
T8 construct: purchased Eurofins/DiscoveRx; host or cells: E. coli BL21-derived host (T7 phage display) for most kinases; HEK-293 for the rest
T8 sequence (P36888 27-993): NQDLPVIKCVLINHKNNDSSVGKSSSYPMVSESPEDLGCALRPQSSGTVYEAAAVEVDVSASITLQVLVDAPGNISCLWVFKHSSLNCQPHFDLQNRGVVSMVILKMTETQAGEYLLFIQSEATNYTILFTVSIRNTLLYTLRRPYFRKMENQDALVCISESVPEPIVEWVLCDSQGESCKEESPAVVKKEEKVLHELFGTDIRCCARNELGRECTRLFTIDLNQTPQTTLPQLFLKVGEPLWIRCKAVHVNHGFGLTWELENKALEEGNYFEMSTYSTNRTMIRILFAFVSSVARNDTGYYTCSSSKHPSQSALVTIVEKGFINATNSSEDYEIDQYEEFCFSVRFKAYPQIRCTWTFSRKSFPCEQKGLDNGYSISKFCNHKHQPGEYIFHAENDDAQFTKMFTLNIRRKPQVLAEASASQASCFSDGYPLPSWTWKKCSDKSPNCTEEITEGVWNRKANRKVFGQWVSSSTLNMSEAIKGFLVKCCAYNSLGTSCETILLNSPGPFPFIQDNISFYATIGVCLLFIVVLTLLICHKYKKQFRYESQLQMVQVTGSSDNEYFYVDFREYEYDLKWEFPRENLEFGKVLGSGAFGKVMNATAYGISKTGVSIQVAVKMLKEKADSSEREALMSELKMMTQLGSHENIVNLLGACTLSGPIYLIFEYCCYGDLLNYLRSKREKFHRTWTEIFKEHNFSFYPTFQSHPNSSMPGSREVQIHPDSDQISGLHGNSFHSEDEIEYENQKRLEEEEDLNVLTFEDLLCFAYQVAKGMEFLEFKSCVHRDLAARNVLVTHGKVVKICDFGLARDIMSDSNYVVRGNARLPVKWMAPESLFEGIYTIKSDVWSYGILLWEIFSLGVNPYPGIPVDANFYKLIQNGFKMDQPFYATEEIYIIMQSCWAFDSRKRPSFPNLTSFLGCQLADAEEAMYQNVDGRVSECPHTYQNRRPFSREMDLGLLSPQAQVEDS
How it was run: as §1

kinases [9] = target: T9, kinases (Homo sapiens, UniProt P00519, F317I); settings: 1 μM
T9 construct: purchased Eurofins/DiscoveRx; host or cells: E. coli BL21-derived host (T7 phage display) for most kinases; HEK-293 for the rest
How it was run: as §1

kinases [10] = target: T10, kinases (Homo sapiens, UniProt P35916); settings: 1 μM; FLT4
T10 construct: purchased Eurofins/DiscoveRx; host or cells: E. coli BL21-derived host (T7 phage display) for most kinases; HEK-293 for the rest
How it was run: as §1

kinases [11] = target: T11, kinases (Homo sapiens, UniProt P07949, V804L); settings: 1 μM; RET(V804L)
T11 construct: purchased Eurofins/DiscoveRx; host or cells: E. coli BL21-derived host (T7 phage display) for most kinases; HEK-293 for the rest
How it was run: as §1

kinases [12] = target: T12, kinases (Homo sapiens, UniProt P00533, L858R/T790M); settings: 1 μM; EGFR(L858R, T790M)
T12 construct: purchased Eurofins/DiscoveRx; host or cells: E. coli BL21-derived host (T7 phage display) for most kinases; HEK-293 for the rest
How it was run: as §1

kinases [13] = target: T13, kinases (Homo sapiens, UniProt P10721, L576P); settings: 1 μM; KIT(L576P)
T13 construct: purchased Eurofins/DiscoveRx; host or cells: E. coli BL21-derived host (T7 phage display) for most kinases; HEK-293 for the rest
How it was run: as §1

kinases [14] = target: T14, kinases (Homo sapiens, UniProt P10721, V559D/V654A); settings: 1 μM; KIT(V559D, V654A)
T14 construct: purchased Eurofins/DiscoveRx; host or cells: E. coli BL21-derived host (T7 phage display) for most kinases; HEK-293 for the rest
How it was run: as §1

kinases [15] = target: T15, kinases (Homo sapiens, UniProt P09619); settings: 1 μM; PDGFRB
T15 construct: purchased Eurofins/DiscoveRx; host or cells: E. coli BL21-derived host (T7 phage display) for most kinases; HEK-293 for the rest
How it was run: as §1

T14 sequence (P10721 26-976 V559D/V654A): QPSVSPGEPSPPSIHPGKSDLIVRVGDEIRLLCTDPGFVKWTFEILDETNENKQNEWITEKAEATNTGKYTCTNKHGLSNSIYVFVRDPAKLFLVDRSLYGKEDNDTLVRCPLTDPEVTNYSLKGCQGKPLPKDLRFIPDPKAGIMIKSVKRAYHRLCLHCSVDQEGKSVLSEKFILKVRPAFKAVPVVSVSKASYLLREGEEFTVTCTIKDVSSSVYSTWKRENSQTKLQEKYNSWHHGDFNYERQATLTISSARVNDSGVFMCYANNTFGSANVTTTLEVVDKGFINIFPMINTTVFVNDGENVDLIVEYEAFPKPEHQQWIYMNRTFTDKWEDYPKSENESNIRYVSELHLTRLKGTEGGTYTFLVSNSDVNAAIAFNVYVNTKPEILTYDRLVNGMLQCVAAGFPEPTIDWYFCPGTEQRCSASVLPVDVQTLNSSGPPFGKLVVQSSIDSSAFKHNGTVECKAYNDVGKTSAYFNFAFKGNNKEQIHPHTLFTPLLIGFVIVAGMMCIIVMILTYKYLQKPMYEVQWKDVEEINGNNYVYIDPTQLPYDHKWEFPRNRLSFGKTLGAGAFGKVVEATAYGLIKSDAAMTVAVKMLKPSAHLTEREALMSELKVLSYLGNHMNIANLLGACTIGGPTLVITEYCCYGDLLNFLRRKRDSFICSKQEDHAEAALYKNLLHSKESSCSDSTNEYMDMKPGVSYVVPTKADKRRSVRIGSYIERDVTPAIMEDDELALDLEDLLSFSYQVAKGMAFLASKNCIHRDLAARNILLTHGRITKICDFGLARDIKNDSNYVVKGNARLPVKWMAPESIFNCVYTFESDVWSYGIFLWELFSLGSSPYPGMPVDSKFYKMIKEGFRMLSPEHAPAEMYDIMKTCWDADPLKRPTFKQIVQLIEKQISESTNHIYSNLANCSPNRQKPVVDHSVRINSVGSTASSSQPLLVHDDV
T10 sequence (P35916 25-1363): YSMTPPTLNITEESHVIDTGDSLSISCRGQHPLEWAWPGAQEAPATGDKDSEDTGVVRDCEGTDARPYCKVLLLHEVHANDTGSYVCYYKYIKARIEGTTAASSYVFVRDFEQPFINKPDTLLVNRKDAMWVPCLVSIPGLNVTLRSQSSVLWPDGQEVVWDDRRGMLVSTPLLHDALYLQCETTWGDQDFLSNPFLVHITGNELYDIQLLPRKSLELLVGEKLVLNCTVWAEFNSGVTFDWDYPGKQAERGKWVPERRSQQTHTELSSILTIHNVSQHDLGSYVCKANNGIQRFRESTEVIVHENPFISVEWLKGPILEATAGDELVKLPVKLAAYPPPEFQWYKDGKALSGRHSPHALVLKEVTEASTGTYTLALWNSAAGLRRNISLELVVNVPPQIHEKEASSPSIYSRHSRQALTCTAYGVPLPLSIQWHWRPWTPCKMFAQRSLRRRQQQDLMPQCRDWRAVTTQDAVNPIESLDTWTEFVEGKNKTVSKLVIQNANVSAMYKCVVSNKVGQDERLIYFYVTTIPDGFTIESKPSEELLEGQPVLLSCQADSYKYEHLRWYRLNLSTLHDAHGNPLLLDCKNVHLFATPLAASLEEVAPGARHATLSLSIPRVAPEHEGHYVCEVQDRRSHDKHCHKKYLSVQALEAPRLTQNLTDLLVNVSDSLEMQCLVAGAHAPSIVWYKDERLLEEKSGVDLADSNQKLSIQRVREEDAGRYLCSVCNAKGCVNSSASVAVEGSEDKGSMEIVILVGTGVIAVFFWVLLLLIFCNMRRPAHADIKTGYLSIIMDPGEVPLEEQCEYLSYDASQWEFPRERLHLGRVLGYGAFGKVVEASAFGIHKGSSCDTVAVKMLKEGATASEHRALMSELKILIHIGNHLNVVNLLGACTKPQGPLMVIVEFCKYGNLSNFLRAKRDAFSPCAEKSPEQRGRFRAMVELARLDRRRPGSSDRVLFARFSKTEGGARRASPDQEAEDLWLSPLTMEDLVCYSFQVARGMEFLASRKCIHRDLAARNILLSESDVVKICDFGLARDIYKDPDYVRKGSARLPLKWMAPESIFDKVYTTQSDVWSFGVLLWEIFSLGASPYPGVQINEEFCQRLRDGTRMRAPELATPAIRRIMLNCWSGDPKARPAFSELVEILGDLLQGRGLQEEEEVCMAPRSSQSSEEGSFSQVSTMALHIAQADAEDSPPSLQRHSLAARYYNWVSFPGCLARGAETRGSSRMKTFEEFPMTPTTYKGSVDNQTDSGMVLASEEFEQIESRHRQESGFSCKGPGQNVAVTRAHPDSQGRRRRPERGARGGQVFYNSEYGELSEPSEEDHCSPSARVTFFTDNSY
T15 sequence (P09619 33-1106): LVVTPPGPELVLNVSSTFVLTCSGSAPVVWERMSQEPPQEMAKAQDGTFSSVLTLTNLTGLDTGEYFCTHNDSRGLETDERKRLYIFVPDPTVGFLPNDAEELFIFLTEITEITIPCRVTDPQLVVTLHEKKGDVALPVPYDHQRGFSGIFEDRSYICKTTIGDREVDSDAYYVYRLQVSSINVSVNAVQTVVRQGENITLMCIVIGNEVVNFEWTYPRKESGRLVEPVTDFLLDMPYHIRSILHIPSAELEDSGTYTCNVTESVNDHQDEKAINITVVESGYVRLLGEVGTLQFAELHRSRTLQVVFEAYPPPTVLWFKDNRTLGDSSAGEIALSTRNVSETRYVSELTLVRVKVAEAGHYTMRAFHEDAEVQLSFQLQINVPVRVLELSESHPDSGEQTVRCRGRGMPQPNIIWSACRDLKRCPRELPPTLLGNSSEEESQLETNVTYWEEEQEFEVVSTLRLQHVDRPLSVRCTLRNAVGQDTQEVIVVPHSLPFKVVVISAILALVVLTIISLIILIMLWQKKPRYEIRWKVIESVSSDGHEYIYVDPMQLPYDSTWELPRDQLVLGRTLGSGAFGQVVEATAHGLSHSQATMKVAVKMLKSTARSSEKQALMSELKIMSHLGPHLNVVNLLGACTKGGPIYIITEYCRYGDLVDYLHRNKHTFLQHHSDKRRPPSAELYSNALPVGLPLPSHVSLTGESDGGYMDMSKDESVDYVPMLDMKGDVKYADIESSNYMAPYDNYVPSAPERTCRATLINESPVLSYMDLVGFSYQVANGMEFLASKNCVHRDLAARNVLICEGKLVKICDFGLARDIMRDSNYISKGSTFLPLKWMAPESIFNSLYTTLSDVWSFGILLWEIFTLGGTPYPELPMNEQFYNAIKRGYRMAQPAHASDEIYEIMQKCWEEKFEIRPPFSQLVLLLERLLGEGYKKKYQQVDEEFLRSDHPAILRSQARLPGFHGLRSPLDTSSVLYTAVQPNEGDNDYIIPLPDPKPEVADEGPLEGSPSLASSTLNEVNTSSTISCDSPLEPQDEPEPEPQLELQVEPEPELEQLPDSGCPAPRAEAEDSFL
T13 sequence (P10721 26-976 L576P): as the sequence (P10721 26-976 V559D/V654A) above, with D534V, L551P, A629V counted along it
T2 sequence (P07949 29-1114 M918T): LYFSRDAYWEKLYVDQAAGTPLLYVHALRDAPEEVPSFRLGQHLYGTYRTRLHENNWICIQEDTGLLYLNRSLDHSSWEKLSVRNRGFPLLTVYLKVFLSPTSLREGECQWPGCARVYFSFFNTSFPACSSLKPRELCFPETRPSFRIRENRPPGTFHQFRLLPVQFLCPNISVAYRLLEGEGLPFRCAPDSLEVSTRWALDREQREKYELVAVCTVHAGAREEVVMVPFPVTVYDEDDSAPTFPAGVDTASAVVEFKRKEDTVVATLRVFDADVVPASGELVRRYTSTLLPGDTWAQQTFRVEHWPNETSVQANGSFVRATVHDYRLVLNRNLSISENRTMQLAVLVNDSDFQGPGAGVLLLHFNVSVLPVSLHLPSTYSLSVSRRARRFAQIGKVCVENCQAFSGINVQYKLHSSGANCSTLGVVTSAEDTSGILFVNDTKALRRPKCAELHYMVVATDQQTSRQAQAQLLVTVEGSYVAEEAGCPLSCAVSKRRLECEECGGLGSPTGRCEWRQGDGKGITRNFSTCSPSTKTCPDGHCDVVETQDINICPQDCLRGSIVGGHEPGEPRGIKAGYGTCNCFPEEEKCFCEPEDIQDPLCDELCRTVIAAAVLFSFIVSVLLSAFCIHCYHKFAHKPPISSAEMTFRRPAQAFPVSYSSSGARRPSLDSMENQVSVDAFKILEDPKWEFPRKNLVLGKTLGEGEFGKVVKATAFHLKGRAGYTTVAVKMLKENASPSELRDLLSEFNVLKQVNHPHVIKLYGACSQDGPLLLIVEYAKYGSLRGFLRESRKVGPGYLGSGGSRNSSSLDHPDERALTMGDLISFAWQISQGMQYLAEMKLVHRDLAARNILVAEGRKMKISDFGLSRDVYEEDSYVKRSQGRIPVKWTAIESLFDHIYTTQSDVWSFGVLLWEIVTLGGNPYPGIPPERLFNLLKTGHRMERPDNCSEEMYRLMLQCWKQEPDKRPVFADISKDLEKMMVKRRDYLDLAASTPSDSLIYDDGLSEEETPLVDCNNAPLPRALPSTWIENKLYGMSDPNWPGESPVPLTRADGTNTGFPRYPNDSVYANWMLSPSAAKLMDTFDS
T11 sequence (P07949 29-1114 V804L): as the sequence (P07949 29-1114 M918T) above, with V776L, T890M counted along it

% Ctrl, EGFR(L858R) (kinases [1]) [% Ctrl] | % Ctrl, RET(M918T) (kinases [2]) [% Ctrl] | % Ctrl, ABL1-nonphosphorylated (kinases [3]) [% Ctrl] | % Ctrl, ABL1-phosphorylated (kinases [3]) [% Ctrl] | % Ctrl, EGFR (kinases [4]) [% Ctrl] | % Ctrl, EGFR(L861Q) (kinases [5]) [% Ctrl] | % Ctrl, ABL1(H396P)-nonphosphorylated (kinases [6]) [% Ctrl] | % Ctrl, ABL1(H396P)-phosphorylated (kinases [6]) [% Ctrl] | % Ctrl, ABL1(Y253F)-phosphorylated (kinases [7]) [% Ctrl] | % Ctrl, FLT3 (kinases [8]) [% Ctrl] | % Ctrl, FLT3-autoinhibited (kinases [8]) [% Ctrl] | % Ctrl, ABL1(F317I)-nonphosphorylated (kinases [9]) [% Ctrl] | % Ctrl, ABL1(F317I)-phosphorylated (kinases [9]) [% Ctrl] | % Ctrl, FLT4 (kinases [10]) [% Ctrl] | % Ctrl, RET(V804L) (kinases [11]) [% Ctrl] | % Ctrl, EGFR(L858R, T790M) (kinases [12]) [% Ctrl] | % Ctrl, KIT(L576P) (kinases [13]) [% Ctrl] | % Ctrl, KIT(V559D, V654A) (kinases [14]) [% Ctrl] | % Ctrl, PDGFRB (kinases [15]) [% Ctrl] | Compound
93 | 36 | 33 | 58 | 100 | 86 | 29 | 54 | 55 | 57 | 89 | 96 | 84 | 100 | 60 | 93 | 8.5 | 59 | 80 | CNC(=O)[C@H]1CN(C)C(=O)c2cc(C)[nH]c2/C=C2\C(=O)Nc3cc(Cl)c(cc32)OCCO1 [Ex. 135, [7R,16a(17)Z]-19-chloro-N,2,5-trimethyl-4,16-dioxo-4,5,6,7,9,10,15,16-octahydro-1H-12,14-(ethanediylidene)dipyrrolo[3,2-i:3′,4′-l][1,4,7]dioxazacyclopentadecine-7-carboxamide]
90 | 25 | 36 | 25 | 98 | 95 | 11 | 22 | 16 | 36 | 97 | 78 | 66 | 100 | 50 | 93 | 4.8 | 54 | 38 | Cc1cc2c([nH]1)/C=C1\C(=O)Nc3cc(Cl)c(cc31)OCCO[C@@H](C(=O)N[C@@H]1CCNC1)CN(C)C2=O [Ex. 136, [7R,16a(17)Z]-19-chloro-2,5-dimethyl-4,16-dioxo-N-[(3R)-pyrrolidin-3-yl]-4,5,6,7,9,10,15,16-octahydro-1H-12,14-(ethanediylidene)dipyrrolo[3,2-i:3′,4′-l][1,4,7]dioxazacyclopentadecine-7-carboxamide]
